In PubChem BioAssay (NCI):
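Compound exposure: 48 hours, 5 concentrations, 96-well plates. Here, GI50 denotes the concentration required for 50% inhibition of growth. TGI is the concentration that stops growth completely.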 Peptide text beside a SMILES is read from it. * marks the point of attachment. Boc = CC(C)(C)OC(=O)*

Tests used:
Assay in all cases: DTP human tumour cell line panel, 48 h
786-0 renal = test system: 786-0 renal
A498 renal = test system: A498 renal
A549 NSCLC = test system: A549 NSCLC
ACHN renal = test system: ACHN renal
BT-549 breast = test system: BT-549 breast
CAKI-1 renal = test system: CAKI-1 renal
CCRF-CEM leukemia = test system: CCRF-CEM leukemia
DU-145 prostate = test system: DU-145 prostate
HL-60(TB) leukemia = test system: HL-60(TB) leukemia
HOP-62 NSCLC = test system: HOP-62 NSCLC
HS 578T breast = test system: HS 578T breast
HT29 colon = test system: HT29 colon
IGROV1 ovarian = test system: IGROV1 ovarian
KM12 colon = test system: KM12 colon
LOX IMVI melanoma = test system: LOX IMVI melanoma
M14 melanoma = test system: M14 melanoma
MALME-3M melanoma = test system: MALME-3M melanoma
MCF7 breast = test system: MCF7 breast
MDA-MB-231 breast = test system: MDA-MB-231 breast
MDA-MB-435 = test system: MDA-MB-435
NCI-H226 lung = test system: NCI-H226 lung
NCI-H460 lung = test system: NCI-H460 lung
NCI/ADR-RES ovarian = test system: NCI/ADR-RES ovarian
OVCAR-3 ovarian = test system: OVCAR-3 ovarian
OVCAR-4 ovarian = test system: OVCAR-4 ovarian
OVCAR-5 ovarian = test system: OVCAR-5 ovarian
PC-3 prostate = test system: PC-3 prostate
RXF 393 renal = test system: RXF 393 renal
SF-268 CNS = test system: SF-268 CNS
SF-295 CNS = test system: SF-295 CNS
SF-539 CNS = test system: SF-539 CNS
SK-MEL-2 melanoma = test system: SK-MEL-2 melanoma
SK-MEL-28 melanoma = test system: SK-MEL-28 melanoma
SK-OV-3 ovarian = test system: SK-OV-3 ovarian
SNB-19 CNS = test system: SNB-19 CNS
SNB-75 CNS = test system: SNB-75 CNS
SR leukemia = test system: SR leukemia
SW-620 colon = test system: SW-620 colon
T-47D breast = test system: T-47D breast
TK-10 renal = test system: TK-10 renal
U251 CNS = test system: U251 CNS
UACC-62 melanoma = test system: UACC-62 melanoma
UO-31 renal = test system: UO-31 renal
COLO 205 colon = test system: COLO 205 colon
HCC-2998 colon = test system: HCC-2998 colon
HCT-116 colon = test system: HCT-116 colon
HCT-15 colon = test system: HCT-15 colon
HOP-92 NSCLC = test system: HOP-92 NSCLC
K-562 leukemia = test system: K-562 leukemia
MOLT-4 leukemia = test system: MOLT-4 leukemia
NCI-H23 lung = test system: NCI-H23 lung
NCI-H522 lung = test system: NCI-H522 lung
OVCAR-8 ovarian = test system: OVCAR-8 ovarian
SK-MEL-5 melanoma = test system: SK-MEL-5 melanoma
SN12C renal = test system: SN12C renal
UACC-257 melanoma = test system: UACC-257 melanoma

CCCCCCC(=O)NC1=C(N2CC2)C(=O)C(NC(=O)CCCCCC)=C(N2CC2)C1=O
GI50 (786-0 renal): 4.25 µM | TGI (786-0 renal): > 100 µM | GI50 (A498 renal): 2.62 µM | TGI (A498 renal): > 100 µM | GI50 (A549 NSCLC): 2.79 µM | TGI (A549 NSCLC): > 100 µM | GI50 (ACHN renal): 2.76 µM | TGI (ACHN renal): > 100 µM | GI50 (BT-549 breast): 31.3 µM | TGI (BT-549 breast): > 100 µM | GI50 (CAKI-1 renal): 1.93 µM | TGI (CAKI-1 renal): > 100 µM | GI50 (CCRF-CEM leukemia): 4.32 µM | TGI (CCRF-CEM leukemia): > 100 µM | GI50 (DU-145 prostate): 1.13 µM | TGI (DU-145 prostate): > 100 µM | GI50 (HL-60(TB) leukemia): 3.17 µM | TGI (HL-60(TB) leukemia): > 100 µM | GI50 (HOP-62 NSCLC): 5.35 µM | TGI (HOP-62 NSCLC): > 100 µM | GI50 (HS 578T breast): 3.11 µM | TGI (HS 578T breast): > 100 µM | GI50 (HT29 colon): 2.94 µM | TGI (HT29 colon): > 100 µM | GI50 (IGROV1 ovarian): 2.31 µM | TGI (IGROV1 ovarian): > 100 µM | GI50 (KM12 colon): 3.12 µM | TGI (KM12 colon): > 100 µM | GI50 (LOX IMVI melanoma): 3.03 µM | TGI (LOX IMVI melanoma): > 100 µM | GI50 (M14 melanoma): 2.25 µM | TGI (M14 melanoma): > 100 µM | GI50 (MALME-3M melanoma): 1.6 µM | TGI (MALME-3M melanoma): 4.98 µM | GI50 (MCF7 breast): 2.06 µM | TGI (MCF7 breast): > 100 µM | GI50 (MDA-MB-231 breast): 3.89 µM | TGI (MDA-MB-231 breast): > 100 µM | GI50 (MDA-MB-435): 1.56 µM | TGI (MDA-MB-435): 3.11 µM | GI50 (NCI-H226 lung): > 100 µM | TGI (NCI-H226 lung): > 100 µM | GI50 (NCI-H460 lung): 0.677 µM | TGI (NCI-H460 lung): > 100 µM | GI50 (NCI/ADR-RES ovarian): 3.18 µM | TGI (NCI/ADR-RES ovarian): > 100 µM | GI50 (OVCAR-3 ovarian): 1.53 µM | TGI (OVCAR-3 ovarian): 4.85 µM | GI50 (OVCAR-4 ovarian): 3.11 µM | TGI (OVCAR-4 ovarian): > 100 µM | GI50 (OVCAR-5 ovarian): > 100 µM | TGI (OVCAR-5 ovarian): > 100 µM | GI50 (PC-3 prostate): 1.61 µM | TGI (PC-3 prostate): > 100 µM | GI50 (RXF 393 renal): 16.3 µM | TGI (RXF 393 renal): 79.5 µM | GI50 (SF-268 CNS): 2.23 µM | TGI (SF-268 CNS): > 100 µM | GI50 (SF-295 CNS): 0.444 µM | TGI (SF-295 CNS): 34 µM | GI50 (SF-539 CNS): 2.37 µM | TGI (SF-539 CNS): > 100 µM | GI50 (SK-MEL-2 melanoma): 2.52 µM | TGI (SK-MEL-2 melanoma): 6.14 µM | GI50 (SK-MEL-28 melanoma): > 100 µM | TGI (SK-MEL-28 melanoma): > 100 µM | GI50 (SK-OV-3 ovarian): 13 µM | TGI (SK-OV-3 ovarian): > 100 µM | GI50 (SNB-19 CNS): 12.9 µM | TGI (SNB-19 CNS): > 100 µM | GI50 (SNB-75 CNS): 11.7 µM | TGI (SNB-75 CNS): 43.9 µM | GI50 (SR leukemia): 1.06 µM | TGI (SR leukemia): > 100 µM | GI50 (SW-620 colon): 2.25 µM | TGI (SW-620 colon): > 100 µM | GI50 (T-47D breast): 3.45 µM | TGI (T-47D breast): > 100 µM | GI50 (TK-10 renal): 20.2 µM | TGI (TK-10 renal): 72.9 µM | GI50 (U251 CNS): 2.88 µM | TGI (U251 CNS): > 100 µM | GI50 (UACC-62 melanoma): 1.87 µM | TGI (UACC-62 melanoma): > 100 µM | GI50 (UO-31 renal): 6.15 µM | TGI (UO-31 renal): > 100 µM

CC(C)C(NC(=O)OC(C)(C)C)C(=O)N1CCCC1C(=O)O (stereo not drawn) (Boc-Val-Pro-OH; configuration not given here)
GI50 (HS 578T breast): 36.1 µg/mL | GI50 (UACC-62 melanoma): 94.1 µg/mL

CCOC(=O)C1=C(Nc2ccc(OC)cc2)C(N)=NC1=N
GI50 (786-0 renal): 5.04 µM | TGI (786-0 renal): > 100 µM | GI50 (A498 renal): 2.71 µM | TGI (A498 renal): 8.11 µM | GI50 (A549 NSCLC): 3.73 µM | TGI (A549 NSCLC): > 100 µM | GI50 (ACHN renal): 8.84 µM | TGI (ACHN renal): > 100 µM | GI50 (BT-549 breast): 5.37 µM | TGI (BT-549 breast): > 100 µM | GI50 (CAKI-1 renal): 5.84 µM | TGI (CAKI-1 renal): > 100 µM | GI50 (CCRF-CEM leukemia): 3.24 µM | TGI (CCRF-CEM leukemia): > 100 µM | GI50 (COLO 205 colon): 3.07 µM | TGI (COLO 205 colon): 10.1 µM | GI50 (DU-145 prostate): 3.49 µM | TGI (DU-145 prostate): > 100 µM | GI50 (HCC-2998 colon): 3.94 µM | TGI (HCC-2998 colon): > 100 µM | GI50 (HCT-116 colon): 2.45 µM | TGI (HCT-116 colon): > 100 µM | GI50 (HCT-15 colon): 1.83 µM | TGI (HCT-15 colon): > 100 µM | GI50 (HL-60(TB) leukemia): 3.51 µM | TGI (HL-60(TB) leukemia): > 100 µM | GI50 (HOP-62 NSCLC): 6.23 µM | TGI (HOP-62 NSCLC): > 100 µM | GI50 (HOP-92 NSCLC): 2.56 µM | TGI (HOP-92 NSCLC): > 100 µM | GI50 (HS 578T breast): 4.17 µM | TGI (HS 578T breast): > 100 µM | GI50 (HT29 colon): 2.9 µM | TGI (HT29 colon): > 100 µM | GI50 (IGROV1 ovarian): 5.5 µM | TGI (IGROV1 ovarian): > 100 µM | GI50 (K-562 leukemia): 3.02 µM | TGI (K-562 leukemia): > 100 µM | GI50 (KM12 colon): 2.64 µM | TGI (KM12 colon): > 100 µM | GI50 (LOX IMVI melanoma): 5.47 µM | TGI (LOX IMVI melanoma): > 100 µM | GI50 (MALME-3M melanoma): 7.29 µM | TGI (MALME-3M melanoma): > 100 µM | GI50 (MCF7 breast): 0.587 µM | TGI (MCF7 breast): > 100 µM | GI50 (MDA-MB-231 breast): 4.02 µM | TGI (MDA-MB-231 breast): > 100 µM | GI50 (MDA-MB-435): 0.336 µM | TGI (MDA-MB-435): 1.5 µM | GI50 (MOLT-4 leukemia): 4.38 µM | TGI (MOLT-4 leukemia): > 100 µM | GI50 (NCI-H23 lung): 4.84 µM | TGI (NCI-H23 lung): > 100 µM | GI50 (NCI-H460 lung): 3.73 µM | TGI (NCI-H460 lung): > 100 µM | GI50 (NCI-H522 lung): 3.12 µM | TGI (NCI-H522 lung): > 100 µM | GI50 (NCI/ADR-RES ovarian): 3.38 µM | TGI (NCI/ADR-RES ovarian): > 100 µM | GI50 (OVCAR-3 ovarian): 2.49 µM | TGI (OVCAR-3 ovarian): 6.5 µM | GI50 (OVCAR-5 ovarian): 5.09 µM | TGI (OVCAR-5 ovarian): > 100 µM | GI50 (OVCAR-8 ovarian): 4.63 µM | TGI (OVCAR-8 ovarian): > 100 µM | GI50 (PC-3 prostate): 3.26 µM | TGI (PC-3 prostate): > 100 µM | GI50 (RXF 393 renal): 1.72 µM | TGI (RXF 393 renal): 6.47 µM | GI50 (SF-268 CNS): 7.87 µM | TGI (SF-268 CNS): > 100 µM | GI50 (SF-295 CNS): 2.71 µM | TGI (SF-295 CNS): 8.32 µM | GI50 (SF-539 CNS): 2.15 µM | TGI (SF-539 CNS): 6.27 µM | GI50 (SK-MEL-2 melanoma): 8.03 µM | TGI (SK-MEL-2 melanoma): > 100 µM | GI50 (SK-MEL-28 melanoma): 6.89 µM | TGI (SK-MEL-28 melanoma): > 100 µM | GI50 (SK-MEL-5 melanoma): 0.57 µM | TGI (SK-MEL-5 melanoma): 55.8 µM | GI50 (SK-OV-3 ovarian): 2.99 µM | TGI (SK-OV-3 ovarian): 18.1 µM | GI50 (SN12C renal): 5.14 µM | TGI (SN12C renal): > 100 µM | GI50 (SNB-19 CNS): 3.68 µM | TGI (SNB-19 CNS): > 100 µM | GI50 (SNB-75 CNS): 3.03 µM | TGI (SNB-75 CNS): > 100 µM | GI50 (SR leukemia): 2.31 µM | TGI (SR leukemia): > 100 µM | GI50 (SW-620 colon): 3.95 µM | TGI (SW-620 colon): > 100 µM | GI50 (T-47D breast): > 100 µM | TGI (T-47D breast): > 100 µM | GI50 (TK-10 renal): 8.31 µM | TGI (TK-10 renal): > 100 µM | GI50 (U251 CNS): 3.81 µM | TGI (U251 CNS): > 100 µM | GI50 (UACC-257 melanoma): > 100 µM | TGI (UACC-257 melanoma): > 100 µM | GI50 (UACC-62 melanoma): 2.85 µM | TGI (UACC-62 melanoma): > 100 µM | GI50 (UO-31 renal): 6.29 µM | TGI (UO-31 renal): > 100 µM
